From US9433645B2, “Method and composition for preventing stem cell disruption and aggregation” (R BIO CO., LTD., priority 2012, dated 2016) come the findings set out here.

The structures appear in SMILES notation.

Common to all, as to type: cell-based, human
The test system of series [1] is adipose tissue-derived mesenchymal stem cells. The experiment in a line: Survival rate of stem cells suspended in normal saline containing acetylsalicylic acid. The conditions noted are these: for Survival rate: 1.0×10^7 cells. On the procedure: After the adipose tissue-derived mesenchymal stem cells isolated in Example 1 were treated with trypsin, the trypsin treated adipose tissue-derived mesenchymal stem cells (1.0×10^7 cells) were suspended in normal saline containing acetylsalicylic acid (Sigma; A5376) at each concentration, and survival rates at 12 and 24 hours were observed. The normal saline containing acetylsalicylic acid was prepared by adding acetylsalicylic acid to normal saline at each concentration and performing sonication at 37 °C for 30 minutes.

For series [2] the test system is unchanged. Briefly: Survival, number of cells and aggregation of stem cells suspended in normal saline containing aspirin lysine. On the procedure: (§1) After the adipose tissue-derived mesenchymal stem cells isolated in Example 1 were treated with trypsin, the trypsin treated adipose tissue-derived mesenchymal stem cells (1.0×10^6 cells) were suspended in normal saline containing aspirin lysine (Shinpoong) at each concentration and cultured for 5 days, and the number of cells was measured. Then, after cold-temperature storage for 24 hours, FACS was measured, thereby confirming characteristics of the cells.

Series [3] shares this test system. Briefly: FACS characteristics (marker expression rate) of stem cells after suspension in normal saline containing aspirin lysine. As for the experimental part:
as §1

The mark [4] stands for this setting: FACS, aspirin 0.1 mg/10 ml, after cold-temperature storage for 24 hours.

Take `CC(=O)Oc1ccccc1C(=O)O` [acetylsalicylic acid]: the Survival rate in series [1] (12 hours, aspirin 1 mg/10 ml normal saline) is reported as 50%; in series [1] (12 hours, aspirin 2 mg/10 ml normal saline), 20%; in series [1] (12 hours, aspirin 5 mg/10 ml normal saline), 10%; in series [1] (24 hours, aspirin 1 mg/10 ml normal saline), 10%; in series [1] (24 hours, aspirin 2 mg/10 ml normal saline), 10%; in series [1] (24 hours, aspirin 5 mg/10 ml normal saline) it was 5%. Further, in series [1] (aspirin added to 10 ml of normal saline 1.0 mg or more), the Cytotoxic effect entry is “a cytotoxic effect was exhibited”.
Regarding `CC(=O)Oc1ccccc1C(=O)O` [aspirin lysine], the “Change in the number of cells” value in series [2] (after culturing for 5 days) is “almost no change in the number of cells”. Further, the “Cell survival rate depending on the concentration” value in series [2] (normal saline containing aspirin lysine at each concentration) was “slightly decreased, but the decrease was not significant”. The Aggregation on storage entry in series [2] (storing the stem cells in normal saline containing aspirin) was “aggregation may be prevented without causing changes in the characteristics of cells”. In addition, in series [3] (setting [4]), the “Expression rate CD29” value is reported as 99.97%, the “Expression rate CD31” value amounted to 0.21%, the “Expression rate CD44” value amounted to 99.25% and the “Expression rate CD45” value came out at 0.17%. The “Characteristics of the stem cells (FACS)” value in series [3] (stored at a cold temperature for 24 hours after suspension in normal saline containing aspirin for 24 hours) is reported as “no influence of the concentration of aspirin”.
